Source: patent publication EP0114128A1, “3-Amino-2-oxo-azetidine derivatives containing in position 1 a nitrogen heterocyclic radical, process for their preparation, their use as therapeutical agents and intermediates for their preparation” (priority 1983, dated 1984)
≈ marks a conversion by molar mass, not a printed value. Read-outs that look alike come from different tables or passages of the source.

Columns and labels:
Test in all cases: In vitro activity, dilution method in liquid medium (MIC)
Type in all cases: cell-based
[1] = tested on: Enterobacter cloacae 1321 E; conditions: read-out: concentrations minimales inhibitrices (C. M. I.)
Method: (§1) Etude pharmacologiaue des produits de l'invention. Activité in vitro, méthode des dilutions en milieu liquide.
(§2) On prépare une série de tubes dans lesquels on répartit une même quantité de milieu nutritif stérile. On distribue dans chaque tube des quantités croissantes du produit à étudier, puis chaque tube est ensemencé avec une souche bactérienne. Après incubation de vingt-quatre ou quarante-huit heures à l'étuve à 37°C, l'inhibition de la croissance est appréciée par transillumination ce qui permet de déterminer les concentrations minimales inhibitrices (C. M. I.) exprimées en µg/cm3.

[2] = tested on: Escherichia Coli 078; conditions: read-out: concentrations minimales inhibitrices (C. M. I.)
Method: as §1, §2

[3] = tested on: Escherichia Coli 1507 E; conditions: COLI1507E, read-out: concentrations minimales inhibitrices (C. M. I.)
Method: as §1, §2

[4] = tested on: Escherichia Coli 1894; conditions: read-out: concentrations minimales inhibitrices (C. M. I.)
Method: as §1, §2

[5] = tested on: Escherichia Coli DC0; conditions: read-out: concentrations minimales inhibitrices (C. M. I.)
Method: as §1, §2

[6] = tested on: Escherichia Coli DC2; conditions: read-out: concentrations minimales inhibitrices (C. M. I.)
Method: as §1, §2

[7] = tested on: Escherichia Coli TEM; conditions: read-out: concentrations minimales inhibitrices (C. M. I.)
Method: as §1, §2

[8] = tested on: Klebsiella Aeruginosa 1522 E; conditions: read-out: concentrations minimales inhibitrices (C. M. I.)
Method: as §1, §2

[9] = tested on: Klebsiella pneumonae 52145; conditions: read-out: concentrations minimales inhibitrices (C. M. I.)
Method: as §1, §2

[10] = tested on: Proteus mirabilis A 235; conditions: read-out: concentrations minimales inhibitrices (C. M. I.)
Method: as §1, §2

[11] = tested on: Proteus vulgaris A 232; conditions: read-out: concentrations minimales inhibitrices (C. M. I.)
Method: as §1, §2

[12] = tested on: Providencia DU 48; conditions: read-out: concentrations minimales inhibitrices (C. M. I.)
Method: as §1, §2

[13] = tested on: Pseudomonas aeruginosa 1771 m; conditions: read-out: concentrations minimales inhibitrices (C. M. I.)
Method: as §1, §2

[14] = tested on: Salmonella typhimurium MZ 11; conditions: Salmonella enterica, read-out: concentrations minimales inhibitrices (C. M. I.)
Method: as §1, §2

[15] = tested on: Serratia marcesceus 2532; conditions: read-out: concentrations minimales inhibitrices (C. M. I.)
Method: as §1, §2

[16] = COLI078, 24 H incubation at 37°C
[17] = COLI078, 48 H incubation at 37°C
[18] = COLI1894, 24 H incubation at 37°C
[19] = COLI1894, 48 H incubation at 37°C
[20] = COLIDC0, 24 H incubation at 37°C
[21] = COLIDC0, 48 H incubation at 37°C
[22] = COLIDC2, 24 H incubation at 37°C
[23] = COLIDC2, 48 H incubation at 37°C

Row | Structure (SMILES) | MIC ([1]; 24 H incubation at 37°C) | MIC ([1]; 48 H incubation at 37°C) | MIC [2, 16] | MIC [2, 17] | MIC ([3]; 24 H incubation at 37°C) | MIC ([3]; 48 H incubation at 37°C) | MIC [4, 18] | MIC [4, 19] | MIC [5, 20] | MIC [5, 21] | MIC [6, 22] | MIC [6, 23] | MIC ([7]; 24 h) | MIC ([7]; 48 h) | MIC ([8]; 24 H incubation at 37°C) | MIC ([8]; 48 H incubation at 37°C) | MIC ([9]; 24 H incubation at 37°C) | MIC ([9]; 48 H incubation at 37°C) | MIC ([10]; A235, 24 H incubation at 37°C) | MIC ([10]; A235, 48 H incubation at 37°C) | further results
1 | CO/N=C(\C(=O)N[C@@H]1C(=O)N(c2nn[nH]n2)[C@@H]1C)c1csc(N)n1 (racemic) [Prod. ex. 1, (3SR. 4RS) 3-//2-(2-aminothiazol-4-yl) 2-méthoxyimino acétyl/ amino/-4-méthyl 1-(1H-tétrazol-5-yl)-2-azétidinone isomère syn] | 0.6 µg/mL (≈ 1.71 µM) | 0.6 µg/mL (≈ 1.71 µM) | 0.3 µg/mL (≈ 0.854 µM) | 0.3 µg/mL (≈ 0.854 µM) | 0.3 µg/mL (≈ 0.854 µM) | 0.3 µg/mL (≈ 0.854 µM) | 0.08 µg/mL (≈ 0.228 µM) | 0.08 µg/mL (≈ 0.228 µM) | 1.2 µg/mL (≈ 3.42 µM) | 1.2 µg/mL (≈ 3.42 µM) | 0.6 µg/mL (≈ 1.71 µM) | 0.6 µg/mL (≈ 1.71 µM) | 0.6 µg/mL (≈ 1.71 µM) | 1.2 µg/mL (≈ 3.42 µM) | 1.2 µg/mL (≈ 3.42 µM) | 1.2 µg/mL (≈ 3.42 µM) | 1.2 µg/mL (≈ 3.42 µM) | 2.5 µg/mL (≈ 7.12 µM) | 0.15 µg/mL (≈ 0.427 µM) | 0.15 µg/mL (≈ 0.427 µM) | MIC ([11]; A232, 24 H incubation at 37°C): 0.3 µg/mL (≈ 0.854 µM); MIC ([11]; A232, 48 H incubation at 37°C): 0.3 µg/mL (≈ 0.854 µM); MIC ([12]; DU48, 24 H incubation at 37°C): 0.6 µg/mL (≈ 1.71 µM); MIC ([12]; DU48, 48 H incubation at 37°C): 0.6 µg/mL (≈ 1.71 µM); MIC ([13]; 24 H incubation at 37°C): ≤ 5 µg/mL; MIC ([13]; 48 H incubation at 37°C): ≤ 5 µg/mL; MIC ([14]; 24 H incubation at 37°C): 1.2 µg/mL (≈ 3.42 µM); MIC ([14]; 48 H incubation at 37°C): 1.2 µg/mL (≈ 3.42 µM); MIC ([15]; 24 H incubation at 37°C): 20 µg/mL (≈ 56.9 µM); MIC ([15]; 48 H incubation at 37°C): 20 µg/mL (≈ 56.9 µM)
2 | CO/N=C(\C(=O)N[C@H]1CN(c2nn[nH]n2)C1=O)c1csc(N)n1 [Prod. ex.3, (3S) 3-//2-(2-aminothiazol-4-yl) 2-méthoxyimino acétyl /amino/ 1-(lH-tétrazol-5-yl) 2-azétidinone] | 0.3 µg/mL (≈ 0.889 µM) | 0.3 µg/mL (≈ 0.889 µM) | 0.3 µg/mL (≈ 0.889 µM) | 0.3 µg/mL (≈ 0.889 µM) | 0.6 µg/mL (≈ 1.78 µM) | 0.6 µg/mL (≈ 1.78 µM) | 0.15 µg/mL (≈ 0.445 µM) | 0.15 µg/mL (≈ 0.445 µM) | 0.6 µg/mL (≈ 1.78 µM) | 1.2 µg/mL (≈ 3.56 µM) | 0.6 µg/mL (≈ 1.78 µM) | 0.6 µg/mL (≈ 1.78 µM) | 10 µg/mL (≈ 29.6 µM) | 10 µg/mL (≈ 29.6 µM) | 0.3 µg/mL (≈ 0.889 µM) | 0.3 µg/mL (≈ 0.889 µM) | 1.2 µg/mL (≈ 3.56 µM) | 1.2 µg/mL (≈ 3.56 µM) | 0.6 µg/mL (≈ 1.78 µM) | 0.6 µg/mL (≈ 1.78 µM) | MIC ([11]; A232, 24 H incubation at 37°C): 0.3 µg/mL (≈ 0.889 µM); MIC ([11]; A232, 48 H incubation at 37°C): 0.3 µg/mL (≈ 0.889 µM); MIC ([12]; DU48, 24 H incubation at 37°C): 0.3 µg/mL (≈ 0.889 µM); MIC ([12]; DU48, 48 H incubation at 37°C): 0.6 µg/mL (≈ 1.78 µM); MIC ([13]; 24 H incubation at 37°C): 5 µg/mL (≈ 14.8 µM); MIC ([13]; 48 H incubation at 37°C): 10 µg/mL (≈ 29.6 µM); MIC ([14]; 24 H incubation at 37°C): 0.3 µg/mL (≈ 0.889 µM); MIC ([14]; 48 H incubation at 37°C): 0.3 µg/mL (≈ 0.889 µM); MIC ([15]; 24 H incubation at 37°C): 2.5 µg/mL (≈ 7.41 µM); MIC ([15]; 48 H incubation at 37°C): 5 µg/mL (≈ 14.8 µM)
3 | C[C@@H]1[C@H](NC(=O)/C(=N\OCC(=O)O)c2csc(N)n2)C(=O)N1c1nn[nH]n1 (racemic) [Prod. ex. 6, (3SR, 4RS) 3-//2-(2-aminothiazol-4-yl) 2/-(carboxyméthoxy) imino/acétyl/amino/ 4-méthyl 1-(1H-tétrazol-5-yl) 2-azétidinone isomère syn] | 0.3 µg/mL (≈ 0.759 µM) | 0.6 µg/mL (≈ 1.52 µM) | 0.3 µg/mL (≈ 0.759 µM) | 0.3 µg/mL (≈ 0.759 µM) | 0.6 µg/mL (≈ 1.52 µM) | 0.6 µg/mL (≈ 1.52 µM) | 0.6 µg/mL (≈ 1.52 µM) | 0.6 µg/mL (≈ 1.52 µM) | 0.6 µg/mL (≈ 1.52 µM) | 0.6 µg/mL (≈ 1.52 µM) | 0.3 µg/mL (≈ 0.759 µM) | 0.3 µg/mL (≈ 0.759 µM) | 0.6 µg/mL (≈ 1.52 µM) | 0.6 µg/mL (≈ 1.52 µM) | 0.6 µg/mL (≈ 1.52 µM) | 0.6 µg/mL (≈ 1.52 µM) | 2.5 µg/mL (≈ 6.32 µM) | 2.5 µg/mL (≈ 6.32 µM) | 0.15 µg/mL (≈ 0.379 µM) | 0.15 µg/mL (≈ 0.379 µM) | MIC ([11]; A232, 24 H incubation at 37°C): 0.08 µg/mL (≈ 0.202 µM); MIC ([11]; A232, 48 H incubation at 37°C): 0.15 µg/mL (≈ 0.379 µM); MIC ([12]; DU48, 24 H incubation at 37°C): 0.6 µg/mL (≈ 1.52 µM); MIC ([12]; DU48, 48 H incubation at 37°C): 0.6 µg/mL (≈ 1.52 µM); MIC ([13]; 24 H incubation at 37°C): 2.5 µg/mL (≈ 6.32 µM); MIC ([13]; 48 H incubation at 37°C): 5 µg/mL (≈ 12.6 µM); MIC ([14]; 24 H incubation at 37°C): 0.6 µg/mL (≈ 1.52 µM); MIC ([14]; 48 H incubation at 37°C): 0.6 µg/mL (≈ 1.52 µM); MIC ([15]; 24 H incubation at 37°C): 2.5 µg/mL (≈ 6.32 µM); MIC ([15]; 48 H incubation at 37°C): 5 µg/mL (≈ 12.6 µM)
4 | CO/N=C(\C(=O)N[C@@H]1C(=O)N(c2nn[nH]n2)[C@H]1C)c1csc(N)n1 (racemic) [Prod. ex. 2, (3SR, 4SR) 3-//2-(2-aminothiazol-4-yl) 2-méthoxyimino acétyl/ amino/ 4-méthyl 1-(1H-tétrazol-5-yl) 2-azétidinone] | 1.2 µg/mL (≈ 3.42 µM) | 1.2 µg/mL (≈ 3.42 µM) | 0.6 µg/mL (≈ 1.71 µM) | 0.6 µg/mL (≈ 1.71 µM) | 0.6 µg/mL (≈ 1.71 µM) | 0.6 µg/mL (≈ 1.71 µM) | 0.3 µg/mL (≈ 0.854 µM) | 0.3 µg/mL (≈ 0.854 µM) | 2.5 µg/mL (≈ 7.12 µM) | 2.5 µg/mL (≈ 7.12 µM) | 0.6 µg/mL (≈ 1.71 µM) | 1.2 µg/mL (≈ 3.42 µM) | 10 µg/mL (≈ 28.5 µM) | 10 µg/mL (≈ 28.5 µM) | 0.6 µg/mL (≈ 1.71 µM) | 0.6 µg/mL (≈ 1.71 µM) | 2.5 µg/mL (≈ 7.12 µM) | 2.5 µg/mL (≈ 7.12 µM) | 0.6 µg/mL (≈ 1.71 µM) | 1.2 µg/mL (≈ 3.42 µM) | MIC ([11]; A232, 24 H incubation at 37°C): 1.2 µg/mL (≈ 3.42 µM); MIC ([11]; A232, 48 H incubation at 37°C): 2.5 µg/mL (≈ 7.12 µM); MIC ([12]; DU48, 24 H incubation at 37°C): 1.2 µg/mL (≈ 3.42 µM); MIC ([12]; DU48, 48 H incubation at 37°C): 1.2 µg/mL (≈ 3.42 µM); MIC ([13]; 24 H incubation at 37°C): ≤ 5 µg/mL; MIC ([13]; 48 H incubation at 37°C): ≤ 5 µg/mL; MIC ([14]; 24 H incubation at 37°C): 1.2 µg/mL (≈ 3.42 µM); MIC ([14]; 48 H incubation at 37°C): 2.5 µg/mL (≈ 7.12 µM); MIC ([15]; 24 H incubation at 37°C): 20 µg/mL (≈ 56.9 µM); MIC ([15]; 48 H incubation at 37°C): > 40 µg/mL
